# According to US20040152674A1, “Pharmaceutically active compounds and methods of use thereof” (Trustees of Tufts College, priority 1998, published 2004):
# What was measured:
# E. coli D31m4(pHCM1) = test: MIC by broth dilution method (Table 4); format: cell-based; set-up: unit not given here; settings: E. coli D31m4(pHCM1) Tcr; 18 hours
# Procedure: (§1) The minimum inhibitory concentration, the lowest concentration of drug that inhibits bacterial growth at 18 hours at their appropriate temperature, is determined by the broth dilution method using L-broth or Muller-Hinton broth. The Muller-Hinton broth was cation-adjusted accordingly and all bacteriological methods were performed as was described by Waitz, J. A., National Commision for Clinical Laboratory Standards Document M7-A2, vol.10, no. 8, pp.13-20, 2nd edition, Villanova, Pa. (1990). The organisms tested represent gram-positive and gram-negative bacterial species that are susceptible to tetracyclines or are resistant to tetracyclines due to the ability to efflux tetracyclines or which confer resistance by ribosomal protection mechanisms. The clinical strains used are either susceptible to tetracyclines or are resistant to them by either drug efflux or ribosomal protection.
# S. aureus RN4250 = test: MIC by broth dilution method (Table 4); format: cell-based; set-up: unit not given here; settings: S. aureus RN4250 Tc^r; 18 hours
# Procedure: as §1
# E. faecalis ATCC9790 [1] = test: MIC by broth dilution method (Table 4); format: cell-based; set-up: unit not given here; settings: E. faecalis Tc^r ATCC9790; 18 hours
# Procedure: as §1
# S. aureus RN450 [2] = test: MIC by broth dilution method (Table 4); format: cell-based; set-up: unit not given here; settings: S. aureus RN450 Tc^s; 18 hours
# Procedure: as §1
# S. aureus ATCC12715 = test: MIC by broth dilution method (Table 4); format: cell-based; set-up: unit not given here; settings: S. aureus Tc^r ATCC12715; 18 hours
# Procedure: as §1
# E. faecalis pMV158 = test: MIC by broth dilution method (Table 4); format: cell-based; set-up: unit not given here; settings: E. faecalis pMV158 Tc^r; 18 hours
# Procedure: as §1
# S. aureus MRSA5 = test: MIC by broth dilution method (Table 4); format: cell-based; set-up: unit not given here; settings: S. aureus MRSA5 Tc^r; 18 hours
# Procedure: as §1
# E. coli D31m4 [3] = test: MIC by broth dilution method (Table 4); format: cell-based; set-up: unit not given here; settings: E. coli D31m4* Tc^r, lipopolysaccharide-deficient mutant; 18 hours
# Procedure: as §1
# E. faecalis pAM211 = test: MIC by broth dilution method (Table 4); format: cell-based; set-up: unit not given here; settings: E. faecalis pAM211 Tc^r; 18 hours
# Procedure: as §1
# MRSA 3 = test: MIC in L broth tubes (Example 10); format: cell-based, S. aureus; settings: Staphylococcus aureus, read-out: Minimum Inhibitory Concentration
# Procedure: (§2) The inhibitory effects of compounds of the invention were examined relative to doxycycline using tetracycline-sensitive and tetracycline-resistant strains of E. coli, S. aureus, and E. faecalis as specified in the Tables below. The general protocol for performing these experiments was as follows: cultures were grown up fresh in L broth in the morning from an overnight culture. After 4-6 hours of growth, each bacterial culture was diluted to an A530 of 0.2-0.5 depending on the strain (E. coli, 0.5; S. aureus, 0.4; E. faecalis, 0.2). Individual tubes, containing 1 ml of L broth and different concentrations of the tested compound, were inoculated with the different bacterial cultures and then incubated at 37° C. After 17-18 hours of incubation, the concentration of the tested compound at which no observed cloudiness was seen was called the minimal inhibitory concentration (MIC). The results obtained are set forth in Tables 2 and 3 below, with the MIC values expressed in μg/ml and set forth in columns beneath the tested compound.
# MRSA 1 = test: MIC in L broth tubes (Example 10); format: cell-based, S. aureus
# Procedure: as §2
# E. faecalid pMV158 (L) = test: MIC in L broth tubes (Example 10); format: cell-based, E. faecalis; settings: Enterococcus faecalis, read-out: Minimum Inhibitory Concentration
# Procedure: as §2
# S. aureus RN4250 (K) = test: MIC in L broth tubes (Example 10); format: cell-based; settings: Staphylococcus aureus, read-out: Minimum Inhibitory Concentration
# Procedure: as §2
# VRE 15 = test: MIC in L broth tubes (Example 10); format: cell-based; settings: Enterococcus, read-out: Minimum Inhibitory Concentration
# Procedure: as §2
# E. faecalis ATCC9790 [4] = test: MIC in L broth tubes (Example 10); format: cell-based; settings: Enterococcus faecalis; E. faecalis ATCC9790, tetracycline sensitive; 17-18 hours, 37° C.; read-out: Minimum Inhibitory Concentration
# Procedure: as §2
# E. faecalis pAM211 (L) = test: MIC in L broth tubes (Example 10); format: cell-based; settings: Enterococcus faecalis, read-out: Minimum Inhibitory Concentration
# Procedure: as §2
# S. aureus RN450 [5] = test: MIC in L broth tubes (Example 10); format: cell-based; settings: Staphylococcus aureus; S. aureus RN450, tetracycline sensitive; 17-18 hours, 37° C.; read-out: Minimum Inhibitory Concentration
# Procedure: as §2
# VRE 11 = test: MIC in L broth tubes (Example 10); format: cell-based; settings: Enterococcus, read-out: Minimum Inhibitory Concentration
# Procedure: as §2
# S. aureus 12715 (K) = test: MIC in L broth tubes (Example 10); format: cell-based; settings: Staphylococcus aureus, tetracycline resistant, 17-18 hours, 37° C., read-out: Minimum Inhibitory Concentration
# Procedure: as §2
# E. coli D31m4(pHCM1) (B) = test: MIC in L broth tubes (Example 10); format: cell-based; settings: Escherichia coli, read-out: Minimum Inhibitory Concentration
# Procedure: as §2
# VRE 17 = test: MIC in L broth tubes (Example 10); format: cell-based; settings: Enterococcus; VRE 17, tetracycline sensitive; read-out: Minimum Inhibitory Concentration
# Procedure: as §2
# VRE 19 = test: MIC in L broth tubes (Example 10); format: cell-based; settings: Enterococcus; VRE 19, tetracycline sensitive; read-out: Minimum Inhibitory Concentration
# Procedure: as §2
# E. coli D31m4 [6] = test: MIC in L broth tubes (Example 10); format: cell-based; settings: Escherichia coli, D31M4, read-out: Minimum Inhibitory Concentration
# Procedure: as §2
Structure (SMILES),Antibacterial activity (minimum inhibitory concentration) (E. coli D31m4(pHCM1)),Antibacterial activity (minimum inhibitory concentration) (S. aureus RN4250),Antibacterial activity (minimum inhibitory concentration) (E. faecalis ATCC9790 [1]),Antibacterial activity (minimum inhibitory concentration) (S. aureus RN450 [2]),Antibacterial activity (minimum inhibitory concentration) (S. aureus ATCC12715),Antibacterial activity (minimum inhibitory concentration) (E. faecalis pMV158),Antibacterial activity (minimum inhibitory concentration) (S. aureus MRSA5),Antibacterial activity (minimum inhibitory concentration) (E. coli D31m4 [3]),Antibacterial activity (minimum inhibitory concentration) (E. faecalis pAM211),other results
"C[C@H]1c2cccc(O)c2C(=O)C2=C(O)[C@]3(O)C(=O)C(C(N)=O)=C(O)[C@@H](N(C)C)C3[C@@H](O)C21 (stereo partly drawn) [Doxycycline, [4S-(4alpha,12aalpha)]-4-(dimethylamino)-1,4,4a,5,5a,6,11,12a-octahydro-3,5,10,12,12a-pentahydroxy-6-methyl-1,11-dioxo-2-naphthacenecarboxamide, reference compound]",12.5,25,0.39,0.195,50,6.25,6.25,0.78,12.5,"MIC (MRSA 3): 6.25 µg/mL; Minimum Inhibitory Concentration (MRSA 1; MRSA 1, listed under Tetracycline Sensitive Bacteria): 6.25 µg/mL; MIC (MRSA 1; Staphylococcus aureus, MRSA, read-out: Minimum Inhibitory Concentration): 6.25 µg/mL; MIC (E. faecalid pMV158 (L)): 12.5 µg/mL; MIC (S. aureus RN4250 (K)): 12.5 µg/mL; MIC (VRE 15): 12.5 µg/mL; MIC (E. faecalis ATCC9790 [4]): < 0.78 µg/mL; MIC (E. faecalis pAM211 (L)): 12.5 µg/mL; MIC (S. aureus RN450 [5]): < 0.78 µg/mL; MIC (VRE 11): 12.5 µg/mL; MIC (S. aureus 12715 (K)): 25 µg/mL; MIC (E. coli D31m4(pHCM1) (B)): 12.5 µg/mL; MIC (VRE 17): ≤ 1.56 µg/mL; MIC (VRE 19): ≤ 1.56 µg/mL; MIC (E. coli D31m4 [6]): < 0.78 µg/mL"
"CC1c2ccc(C(C)(C)CCCBr)c(O)c2C(=O)C2=C(O)[C@]3(O)C(=O)C(C(N)=O)=C(O)[C@@H](N(C)C)C3C(O)C21 (stereo partly drawn) [I, [4S-(4alpha,12aalpha)]-9-[4′-(1′-bromo-4′-methyl)pentyl]-4-(dimethylamino)-1,4,4a,5,5a,6,11,12a-octahydro-3,5,10,12,12a-pentahydroxy-6-methyl-1,11-dioxo-2-naphthacenecarboxamide]",1.56,0.08,0.39,0.39,0.78,0.08,0.39,1.56,0.78,–
"CC(=O)OC(CCC(C)C)c1ccc2c(c1O)C(=O)C1=C(O)C3(O)C(=O)C(C(N)=O)=C(O)C(N(C)C)C3C(O)C1C2C (stereo not drawn) [Compound N, [4S-(4alpha,12aalpha)]-9-[4′-(1′-acetoxy-4′-methyl)pentyl]-4-(dimethylamino)-1,4,4a,5,5a,6,11,12a-octahydro-3,5,10,12,12a-pentahydroxy-6-methyl-1,11-dioxo-2-naphthacenecarboxamide]",3.12,1.56,1.56,1.56,1.56,0.78,1.56,3.12,1.56,–
"CC1c2ccc(C3(C)CCCC3)c(O)c2C(=O)C2=C(O)C3(O)C(=O)C(C(N)=O)=C(O)C(N(C)C)C3C(O)C21 (stereo not drawn) [F, [4S-(4alpha,12aalpha)]-9-[1′-(1′-methyl)cyclopentyl]-4-(dimethylamino)-1,4,4a,5,5a,6,11,12a-octahydro-3,5,10,12,12a-pentahydroxy-6-methyl-1,11-dioxo-2-naphthacenecarboxamide]",1.56,0.39,0.78,0.39,0.78,0.08,0.08,0.78,0.39,–
